According to patent US10815230B2, “Casein kinase 1 delta inhibitor” (ELECTROPHORETICS LIMITED, priority 2015, dated 2020):

Experiments:
[1] = tested on: TMHT (Thy-1 Mutated Human Tau) mouse; assay: In-vivo efficacy, Morris Water Maze in tau transgenic mice; details: 30 mg/kg orally for 8 weeks
From the text: Various compounds of different classes (among them also antibody treatments) were positively tested for their efficacy in the TMHT model. Published examples are the γ-secretase modulator CHF5074 (Lanzilotta A, et al. The γ-secretase modulator CHF5074 reduces the accumulation of native hyperphosphoxylated tau in a transgenic mouse model of Alzheimer's disease. J Mol Neurosci. 45(1):22--33 (2010)), sodium selenate (Corcoran N M et al. Sodium selenate specifically activates PP2A phosphatase, dephosphorylates tau and reverses memory deficits in an Alzheimer's disease model. J Clin Neurosci. 17(8):1025-33 (2010)) and grape-seed polyphenol extract (Wang J et al. Grape derived polyphenols attenuate tau neuropathology in a mouse model of Alzheimer's disease. […] The effects of the compounds on learning in the Morris Mater Maze (MWM) were evaluated. Blood (plasma) and brain samples were collected after sacrification. Samples collected at sacrifice were plasma, left cortex, left hippocampus, right cortex, right hippocampus, remainder of left brain hemisphere, remainder of right brain hemisphere. In total 48 animals were used and allocated to 4 treatment groups. The start position of the mouse and the position of the platform (FIG. 1) in the different trials of the MWM were as indicated in Table 9: […] A descriptive statistical analysis was performed on all evaluated parameters. All data were represented as mean ±standard error of mean (SEM). MWM learning curve data of three trials per day were averaged. Over a period of 4 days, the ability to find a hidden platform using visual cues was measured performing 3 trials a day. By comparison of the learning curves, the cognitive abilities of the different treatment groups and possible drug effects were evaluated.

CK1a1 = CK1a1 (Homo sapiens, UniProt P48729); assay: Kinase selectivity, % remaining activity; format: biochemical; details: CK1a1, 10 μM compound, 10 μM ATP, duplicate
Method: (§1) Compounds were tested in single dose duplicate mode at a concentration of 10 μM (in DMSO) and reactions were carried out at 10 μM ATP, Table 3 reports the % of remaining activity (relative to DMSO).

ABL2/ARG = ABL2/ARG (Homo sapiens, UniProt P42684); assay: Kinase selectivity, % remaining activity; format: biochemical; details: 10 μM compound, 10 μM ATP, duplicate
Method: (§2) A two-tier strategy to determine the selectivity of compound A was applied: first, the compound was tested at a single concentration (in duplicate) to determine the %-remaining activity of the target kinase. Subsequently, the IC50 of compound A and comparative compounds for casein kinase 1 delta were determined.
as §1

CDK5/p25 = CDK5/p25 (Homo sapiens, UniProt Q00535); assay: Kinase selectivity, % remaining activity; format: biochemical; details: 10 μM compound, 10 μM ATP, duplicate
Method: as §2, §1

CK1e = CK1e (Homo sapiens, UniProt P49674); assay: Kinase selectivity, % remaining activity; format: biochemical; details: 10 μM compound, 10 μM ATP, duplicate
Method: as §2, §1

CK1g1 = CK1g1 (Homo sapiens, UniProt Q9HCP0); assay: Kinase selectivity, % remaining activity; format: biochemical; details: 10 μM compound, 10 μM ATP, duplicate
Method: as §2, §1

CK1g3 = CK1g3 (Homo sapiens, UniProt Q9Y6M4); assay: Kinase selectivity, % remaining activity; format: biochemical; details: 10 μM compound, 10 μM ATP, duplicate
Method: as §2, §1

EGFR = EGFR (Homo sapiens, UniProt P00533); assay: Kinase selectivity, % remaining activity; format: biochemical; details: 10 μM compound, 10 μM ATP, duplicate
Method: as §2, §1

FGFR1 = FGFR1 (Homo sapiens, UniProt P11362); assay: Kinase selectivity, % remaining activity; format: biochemical; details: 10 μM compound, 10 μM ATP, duplicate
Method: as §2, §1

JNK2 = JNK2 (Homo sapiens, UniProt P45984); assay: Kinase selectivity, % remaining activity; format: biochemical; details: 10 μM compound, 10 μM ATP, duplicate
Method: as §2, §1

KDR/VEGFR2 = KDR/VEGFR2 (Homo sapiens, UniProt P35968); assay: Kinase selectivity, % remaining activity; format: biochemical; details: 10 μM compound, 10 μM ATP, duplicate
Method: as §2, §1

LCK = LCK (Homo sapiens, UniProt P06239); assay: Kinase selectivity, % remaining activity; format: biochemical; details: 10 μM compound, 10 μM ATP, duplicate
Method: as §2, §1

P38a/MAPK14 = P38a/MAPK14 (Homo sapiens, UniProt Q16539); assay: Kinase selectivity, % remaining activity; format: biochemical; details: 10 μM compound, 10 μM ATP, duplicate
Method: as §2, §1

PKA = PKA (Homo sapiens, UniProt P17612); assay: Kinase selectivity, % remaining activity; format: biochemical; details: 10 μM compound, 10 μM ATP, duplicate
Method: as §2, §1

PKCb2 = PKCb2 (Homo sapiens, UniProt P05771); assay: Kinase selectivity, % remaining activity; format: biochemical; details: 10 μM compound, 10 μM ATP, duplicate
Method: as §2, §1

RIPK2 = RIPK2 (Homo sapiens, UniProt O43353); assay: Kinase selectivity, % remaining activity; format: biochemical; details: 10 μM compound, 10 μM ATP, duplicate
Method: as §2, §1

TNIK = TNIK (Homo sapiens, UniProt Q9UKE5); assay: Kinase selectivity, % remaining activity; format: biochemical; details: 10 μM compound, 10 μM ATP, duplicate
Method: as §2, §1

[2] = biological target: CK1d (casein kinase 1 delta) (Homo sapiens, UniProt P48730); assay: Kinase selectivity, % remaining activity and IC50; format: biochemical; details: 10 μM ATP
Method: as §2, §1
Control compound GW5074 (Tocris®) was tested starting at 20 μM. Reactions were carried out at 10 μM ATP.

[3] = read-out: % of remaining activity (relative to DMSO)

Sequence of CK1d (casein kinase 1 delta) (P48730 whole entry): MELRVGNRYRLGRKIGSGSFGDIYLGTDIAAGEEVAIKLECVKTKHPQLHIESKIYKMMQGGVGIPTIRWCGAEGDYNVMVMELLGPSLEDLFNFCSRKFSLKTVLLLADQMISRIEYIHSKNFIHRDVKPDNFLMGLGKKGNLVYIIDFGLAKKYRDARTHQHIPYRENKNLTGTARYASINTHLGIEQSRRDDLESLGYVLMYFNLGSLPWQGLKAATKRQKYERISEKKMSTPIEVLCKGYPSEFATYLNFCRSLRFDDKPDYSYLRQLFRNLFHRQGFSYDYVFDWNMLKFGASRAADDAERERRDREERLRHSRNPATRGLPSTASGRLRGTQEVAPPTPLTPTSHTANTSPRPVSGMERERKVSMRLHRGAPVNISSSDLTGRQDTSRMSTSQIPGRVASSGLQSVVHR
Sequence of CDK5/p25 (Q00535 whole entry, species assumed): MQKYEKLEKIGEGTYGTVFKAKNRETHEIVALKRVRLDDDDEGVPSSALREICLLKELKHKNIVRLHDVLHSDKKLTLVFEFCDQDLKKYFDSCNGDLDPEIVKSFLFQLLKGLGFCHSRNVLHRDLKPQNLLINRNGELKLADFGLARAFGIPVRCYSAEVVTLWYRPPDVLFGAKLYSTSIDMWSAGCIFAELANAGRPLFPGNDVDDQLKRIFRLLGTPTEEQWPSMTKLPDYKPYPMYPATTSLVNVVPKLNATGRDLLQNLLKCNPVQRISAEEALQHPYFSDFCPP
Sequence of P38a/MAPK14 (Q16539 whole entry): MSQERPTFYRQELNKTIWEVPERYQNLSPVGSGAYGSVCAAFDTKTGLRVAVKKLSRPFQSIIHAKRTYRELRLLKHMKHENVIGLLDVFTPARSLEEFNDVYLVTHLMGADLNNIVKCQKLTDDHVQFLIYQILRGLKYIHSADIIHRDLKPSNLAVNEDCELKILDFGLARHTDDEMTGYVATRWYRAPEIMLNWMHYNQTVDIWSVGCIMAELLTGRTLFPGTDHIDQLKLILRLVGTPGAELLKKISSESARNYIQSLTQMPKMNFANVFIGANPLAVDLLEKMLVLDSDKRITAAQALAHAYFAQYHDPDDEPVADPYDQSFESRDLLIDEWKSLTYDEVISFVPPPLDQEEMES
Sequence of TNIK (Q9UKE5 whole entry): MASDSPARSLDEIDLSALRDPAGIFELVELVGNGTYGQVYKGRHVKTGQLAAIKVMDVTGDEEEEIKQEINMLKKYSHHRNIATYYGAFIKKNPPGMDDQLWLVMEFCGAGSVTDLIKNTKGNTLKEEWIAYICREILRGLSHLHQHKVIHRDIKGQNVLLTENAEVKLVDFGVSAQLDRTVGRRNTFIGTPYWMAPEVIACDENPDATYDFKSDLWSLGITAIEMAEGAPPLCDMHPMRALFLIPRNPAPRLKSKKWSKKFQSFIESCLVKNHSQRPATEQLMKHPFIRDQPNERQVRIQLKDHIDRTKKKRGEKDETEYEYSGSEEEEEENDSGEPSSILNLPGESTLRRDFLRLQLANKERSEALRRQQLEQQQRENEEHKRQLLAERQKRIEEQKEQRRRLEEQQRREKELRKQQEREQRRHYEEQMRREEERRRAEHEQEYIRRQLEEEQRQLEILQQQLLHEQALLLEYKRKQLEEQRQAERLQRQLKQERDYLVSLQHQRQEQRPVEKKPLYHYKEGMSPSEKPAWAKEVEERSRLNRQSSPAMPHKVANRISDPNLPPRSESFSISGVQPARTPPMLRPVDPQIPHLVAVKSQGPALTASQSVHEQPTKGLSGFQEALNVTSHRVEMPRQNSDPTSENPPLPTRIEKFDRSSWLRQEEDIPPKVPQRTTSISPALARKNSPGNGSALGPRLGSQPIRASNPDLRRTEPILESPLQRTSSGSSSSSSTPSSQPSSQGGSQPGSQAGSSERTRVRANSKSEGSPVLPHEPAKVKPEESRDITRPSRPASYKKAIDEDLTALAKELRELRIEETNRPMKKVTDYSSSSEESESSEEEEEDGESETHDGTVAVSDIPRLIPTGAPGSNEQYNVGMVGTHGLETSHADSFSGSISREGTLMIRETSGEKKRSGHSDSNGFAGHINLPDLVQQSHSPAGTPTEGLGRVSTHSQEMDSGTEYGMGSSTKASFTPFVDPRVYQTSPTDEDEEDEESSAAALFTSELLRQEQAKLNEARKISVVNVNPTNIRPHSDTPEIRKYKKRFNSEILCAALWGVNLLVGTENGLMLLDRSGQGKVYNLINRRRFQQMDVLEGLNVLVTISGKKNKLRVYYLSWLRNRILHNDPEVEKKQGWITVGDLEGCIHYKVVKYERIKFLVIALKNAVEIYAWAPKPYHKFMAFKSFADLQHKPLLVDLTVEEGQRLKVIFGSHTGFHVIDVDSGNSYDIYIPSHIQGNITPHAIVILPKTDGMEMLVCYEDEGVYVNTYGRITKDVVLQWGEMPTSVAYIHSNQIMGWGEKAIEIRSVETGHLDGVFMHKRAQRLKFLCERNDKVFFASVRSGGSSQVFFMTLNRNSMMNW
Sequence of RIPK2 (O43353 whole entry): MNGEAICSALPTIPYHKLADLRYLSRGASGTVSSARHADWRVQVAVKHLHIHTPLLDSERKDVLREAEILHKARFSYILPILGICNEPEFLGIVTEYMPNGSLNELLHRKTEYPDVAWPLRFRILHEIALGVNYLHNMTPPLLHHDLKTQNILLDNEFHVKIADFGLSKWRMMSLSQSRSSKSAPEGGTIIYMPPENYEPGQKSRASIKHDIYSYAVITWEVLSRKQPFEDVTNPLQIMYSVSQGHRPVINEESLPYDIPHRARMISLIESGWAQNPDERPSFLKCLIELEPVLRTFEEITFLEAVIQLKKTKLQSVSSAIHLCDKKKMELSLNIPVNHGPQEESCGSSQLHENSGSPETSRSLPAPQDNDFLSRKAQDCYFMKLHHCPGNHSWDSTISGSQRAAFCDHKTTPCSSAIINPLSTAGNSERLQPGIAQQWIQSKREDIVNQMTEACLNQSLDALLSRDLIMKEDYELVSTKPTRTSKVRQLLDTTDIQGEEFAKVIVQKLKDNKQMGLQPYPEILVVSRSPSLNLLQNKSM
Sequence of LCK (P06239 whole entry): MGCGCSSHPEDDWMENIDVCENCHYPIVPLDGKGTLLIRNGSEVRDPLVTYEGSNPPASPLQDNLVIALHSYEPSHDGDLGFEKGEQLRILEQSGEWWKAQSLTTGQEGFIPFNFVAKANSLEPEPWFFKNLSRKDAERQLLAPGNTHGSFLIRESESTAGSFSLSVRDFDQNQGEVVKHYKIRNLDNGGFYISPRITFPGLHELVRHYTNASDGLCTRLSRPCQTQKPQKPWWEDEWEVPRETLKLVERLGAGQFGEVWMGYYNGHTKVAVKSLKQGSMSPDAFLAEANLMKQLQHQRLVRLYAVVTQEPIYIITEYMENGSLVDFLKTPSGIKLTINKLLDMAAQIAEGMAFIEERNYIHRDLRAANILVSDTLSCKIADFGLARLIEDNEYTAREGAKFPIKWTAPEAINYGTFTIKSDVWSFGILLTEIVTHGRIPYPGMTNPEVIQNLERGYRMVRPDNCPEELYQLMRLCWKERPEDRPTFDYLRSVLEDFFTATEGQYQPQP
Sequence of CK1g3 (Q9Y6M4 whole entry): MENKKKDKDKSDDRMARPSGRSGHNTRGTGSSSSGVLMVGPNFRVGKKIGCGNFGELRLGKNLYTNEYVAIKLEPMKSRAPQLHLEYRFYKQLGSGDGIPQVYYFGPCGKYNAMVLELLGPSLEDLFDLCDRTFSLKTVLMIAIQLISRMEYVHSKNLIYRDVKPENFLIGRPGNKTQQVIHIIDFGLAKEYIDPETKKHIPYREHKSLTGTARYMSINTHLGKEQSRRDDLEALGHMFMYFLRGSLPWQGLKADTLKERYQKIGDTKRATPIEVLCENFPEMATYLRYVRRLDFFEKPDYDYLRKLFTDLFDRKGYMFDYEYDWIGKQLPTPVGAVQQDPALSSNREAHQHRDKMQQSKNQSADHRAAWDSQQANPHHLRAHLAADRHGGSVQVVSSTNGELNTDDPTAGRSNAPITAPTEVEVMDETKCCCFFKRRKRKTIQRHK
Sequence of PKCb2 (P05771 1-673 isoform P05771-2): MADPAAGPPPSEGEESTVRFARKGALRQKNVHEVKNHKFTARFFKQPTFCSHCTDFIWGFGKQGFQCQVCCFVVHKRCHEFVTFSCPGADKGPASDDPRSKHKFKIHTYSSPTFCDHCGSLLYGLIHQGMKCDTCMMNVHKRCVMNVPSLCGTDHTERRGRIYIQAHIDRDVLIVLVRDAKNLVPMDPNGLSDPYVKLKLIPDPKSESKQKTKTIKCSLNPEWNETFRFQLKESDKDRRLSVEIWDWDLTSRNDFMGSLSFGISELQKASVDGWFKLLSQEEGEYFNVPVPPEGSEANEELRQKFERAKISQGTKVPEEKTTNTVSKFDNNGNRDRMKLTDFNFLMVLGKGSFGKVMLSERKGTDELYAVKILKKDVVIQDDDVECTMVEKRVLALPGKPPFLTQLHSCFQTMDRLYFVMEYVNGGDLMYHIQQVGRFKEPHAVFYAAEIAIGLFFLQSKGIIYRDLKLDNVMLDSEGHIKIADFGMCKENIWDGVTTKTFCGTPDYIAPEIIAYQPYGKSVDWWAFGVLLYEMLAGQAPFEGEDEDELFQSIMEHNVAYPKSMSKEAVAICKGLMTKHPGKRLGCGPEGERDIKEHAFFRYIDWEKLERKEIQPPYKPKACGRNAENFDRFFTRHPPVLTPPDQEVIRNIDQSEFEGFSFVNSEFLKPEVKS
Sequence of CK1g1 (Q9HCP0 whole entry): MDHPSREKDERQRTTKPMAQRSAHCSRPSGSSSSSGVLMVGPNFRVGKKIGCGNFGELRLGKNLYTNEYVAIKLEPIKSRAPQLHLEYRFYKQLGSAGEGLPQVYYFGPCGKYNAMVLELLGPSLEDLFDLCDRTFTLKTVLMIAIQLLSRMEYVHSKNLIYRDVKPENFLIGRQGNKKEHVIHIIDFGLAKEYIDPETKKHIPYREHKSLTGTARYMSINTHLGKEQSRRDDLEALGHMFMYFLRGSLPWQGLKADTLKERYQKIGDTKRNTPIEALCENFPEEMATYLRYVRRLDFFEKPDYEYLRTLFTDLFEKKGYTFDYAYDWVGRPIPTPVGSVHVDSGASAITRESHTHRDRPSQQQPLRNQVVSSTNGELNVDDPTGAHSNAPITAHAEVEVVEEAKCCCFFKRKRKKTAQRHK

Structure (SMILES): Nc1ncc(-c2nc3ccccc3o2)c(-c2ccncc2)n1 [Comparative Compound 324, 5-(1,3-benzoxazol-2-yl)-4-(pyridine-4-yl)pyrimidin-2-amine]
- Escape latency (time to reach the target), Mean ± SEM, Day 1 ([1]; Day 1): 54.9 ± 2.66 s
- Path length to reach the target, Mean ± SEM, Day 1 ([1]; Day 1): 8.81 ± 0.55 meter
- Escape latency (time to reach the target), Mean ± SEM, Day 2 ([1]; Day 2): 46.6 ± 3.82 s
- Path length to reach the target, Mean ± SEM, Day 2 ([1]; Day 2): 6.77 ± 0.64 meter
- Escape latency (time to reach the target), Mean ± SEM, Day 3 ([1]; Day 3): 39.8 ± 3.95 s
- Path length to reach the target, Mean ± SEM, Day 3 ([1]; Day 3): 5.25 ± 0.58 meter
- Escape latency (time to reach the target), Mean ± SEM, Day 4 ([1]; Day 4): 36.9 ± 3.87 s
- Path length to reach the target, Mean ± SEM, Day 4 ([1]; Day 4): 5.17 ± 0.62 meter
- % of remaining activity (relative to DMSO) (CK1a1; listed as Cmp 324): 58.48%
- remaining activity at 10 µM (CK1a1; [3]): 65.7%
- % of remaining activity (relative to DMSO) (ABL2/ARG; listed as Cmp 324): 96.78%
- remaining activity at 10 µM (ABL2/ARG; [3]): 101%
- % of remaining activity (relative to DMSO) (CDK5/p25; listed as Cmp 324): 97.13%
- remaining activity at 10 µM (CDK5/p25; [3]): 87.7%
- % of remaining activity (relative to DMSO) (CK1e; listed as Cmp 324): 24.86%
- remaining activity at 10 µM (CK1e; [3]): 28.2%
- % of remaining activity (relative to DMSO) (CK1g1; listed as Cmp 324): 92.69%
- remaining activity at 10 µM (CK1g1; [3]): 99%
- % of remaining activity (relative to DMSO) (CK1g3; listed as Cmp 324): 62.63%
- remaining activity at 10 µM (CK1g3; [3]): 69.9%
- % of remaining activity (relative to DMSO) (EGFR; listed as Cmp 324): 79.83%
- remaining activity at 10 µM (EGFR; [3]): 83.8%
- % of remaining activity (relative to DMSO) (FGFR1; listed as Cmp 324): 108.45%
- remaining activity at 10 µM (FGFR1; [3]): 104%
- % of remaining activity (relative to DMSO) (JNK2; listed as Cmp 324): 91.75%
- remaining activity at 10 µM (JNK2; [3]): 95.1%
- % of remaining activity (relative to DMSO) (KDR/VEGFR2; listed as Cmp 324): 100.01%
- remaining activity at 10 µM (KDR/VEGFR2; [3]): 85.1%
- % of remaining activity (relative to DMSO) (LCK; listed as Cmp 324): 95.46%
- remaining activity at 10 µM (LCK; [3]): 102%
- % of remaining activity (relative to DMSO) (P38a/MAPK14; listed as Cmp 324): 48.46%
- remaining activity at 10 µM (P38a/MAPK14; [3]): 53.9%
- % of remaining activity (relative to DMSO) (PKA; listed as Cmp 324): 90.27%
- remaining activity at 10 µM (PKA; [3]): 90.8%
- % of remaining activity (relative to DMSO) (PKCb2; listed as Cmp 324): 103.51%
- remaining activity at 10 µM (PKCb2; [3]): 101%
- % of remaining activity (relative to DMSO) (RIPK2; listed as Cmp 324): 92.78%
- remaining activity at 10 µM (RIPK2; [3]): 92.2%
- % of remaining activity (relative to DMSO) (TNIK; listed as Cmp 324): 65.72%
- remaining activity at 10 µM (TNIK; [3]): 74.6%
- % of remaining activity (relative to DMSO) ([2]; CK1d, 10 μM compound, duplicate, listed as Cmp 324): 11.87%
- remaining activity at 10 µM ([2]; CK1d, 10 μM compound, duplicate, read-out: % of remaining activity (relative to DMSO)): 13.3%
- IC50 ([2]; casein kinase 1 delta, 10-dose, 3 fold serial dilution): 483 nM
